# Source: PMC7400577 (Scientific Reports, 2020)
# How the values were obtained:
# [1] = target: T1, hGAT3 (Homo sapiens, UniProt P48066); test: [3H]GABA uptake inhibition at hGAT3 stably expressed in CHO Flp-In cells; format: cell-based; conditions: 30 nM [3H]GABA, 3 min, CHO Flp-In cells stably expressing hGAT3; read-out: IC50 hGAT3
# T1 construct: expressed in transfected cells
# T1 sequence (P48066 1-632): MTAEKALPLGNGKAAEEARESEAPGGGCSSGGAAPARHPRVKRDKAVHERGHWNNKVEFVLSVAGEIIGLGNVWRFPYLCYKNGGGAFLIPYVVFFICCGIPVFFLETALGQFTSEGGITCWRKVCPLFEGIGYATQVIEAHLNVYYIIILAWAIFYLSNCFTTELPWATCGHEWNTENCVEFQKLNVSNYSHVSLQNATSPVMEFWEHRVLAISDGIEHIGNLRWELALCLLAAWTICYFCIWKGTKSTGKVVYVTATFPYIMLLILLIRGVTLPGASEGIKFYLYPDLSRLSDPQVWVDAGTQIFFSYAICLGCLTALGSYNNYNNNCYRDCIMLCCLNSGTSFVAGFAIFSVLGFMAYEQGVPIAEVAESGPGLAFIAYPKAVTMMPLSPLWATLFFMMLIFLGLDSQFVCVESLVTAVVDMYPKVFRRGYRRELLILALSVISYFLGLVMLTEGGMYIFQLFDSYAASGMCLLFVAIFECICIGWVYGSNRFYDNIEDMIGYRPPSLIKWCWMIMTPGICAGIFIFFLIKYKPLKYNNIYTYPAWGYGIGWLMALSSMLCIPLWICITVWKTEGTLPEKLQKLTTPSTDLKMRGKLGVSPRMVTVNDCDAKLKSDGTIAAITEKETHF
# Experimental: (§1) CHO Flp-In and tsA201 cells were cultured at 37 °C in a humidified atmosphere of […] and 5% CO2. As previously described[38],[63], CHO Flp-In cells stably expressing the hGATs were cultured in Ham’s F12 Nutrient Mix supplemented with 10% FBS, 1% P/S and plasmocin (5 µg/mL) under the selection pressure of hygromycin B (200 µg/mL). DMEM with GlutaMAX-I supplemented with 10% FBS and 1% P/S was used as growth medium for the tsA201 cells, which were transfected with DNA constructs using PolyFect according to the manufacturer’s specifications (Qiagen, West Sussex, UK), but with half of the recommended reagent volumes.
# (§2) Uptake assays were performed in PDL-coated white 96-well polystyrene cell culture microplates (PerkinElmer, Boston, MA, USA) as previously described[38],[63]. […] Assay buffer was HBSS supplemented with 20 mM HEPES, 1 mM CaCl2 and 1 mM MgCl2, pH 7.4. […] After termination, scintillation liquid (MicroScint-20, PerkinElmer) was added and the radioactivity measured in a TopCount NXT Microplate Scintillation Counter (PerkinElmer).
# (§3) Data analysis and statistical evaluation were performed in GraphPad Prism 7.02 (GraphPad Software, San Diego, CA, USA). Concentration-uptake inhibition curves, generated from the radioligand-based uptake assays, were fitted by non-linear regression, using the equation for sigmoidal concentration–response with variable slope: Y = Bottom + (Top–Bottom)/(1 + 10^((logIC50 − X) × HillSlope)), where Y is the response, X is the logarithm of the concentration, Top and Bottom are the plateaus in same units as Y, logIC50 is the concentration giving a response halfway between Bottom and Top, and the HillSlope is the steepness of the curve. For the substrate concentration–response curves generated from the FMP assay, the same equation was used but with logEC50 instead for logIC50. Unless otherwise stated, data are presented as means ± S.E.M. of at least three independent pooled experiments performed in triplicates.
# [2] = target: T2, hGAT2 (Homo sapiens, UniProt Q9NSD5); test: [3H]GABA uptake inhibition at hGAT2 stably expressed in CHO Flp-In cells; format: cell-based; conditions: 30 nM [3H]GABA, 3 min, CHO Flp-In cells stably expressing hGAT2; read-out: IC50 hGAT2
# T2 construct: expressed in transfected cells
# T2 sequence (Q9NSD5 1-602): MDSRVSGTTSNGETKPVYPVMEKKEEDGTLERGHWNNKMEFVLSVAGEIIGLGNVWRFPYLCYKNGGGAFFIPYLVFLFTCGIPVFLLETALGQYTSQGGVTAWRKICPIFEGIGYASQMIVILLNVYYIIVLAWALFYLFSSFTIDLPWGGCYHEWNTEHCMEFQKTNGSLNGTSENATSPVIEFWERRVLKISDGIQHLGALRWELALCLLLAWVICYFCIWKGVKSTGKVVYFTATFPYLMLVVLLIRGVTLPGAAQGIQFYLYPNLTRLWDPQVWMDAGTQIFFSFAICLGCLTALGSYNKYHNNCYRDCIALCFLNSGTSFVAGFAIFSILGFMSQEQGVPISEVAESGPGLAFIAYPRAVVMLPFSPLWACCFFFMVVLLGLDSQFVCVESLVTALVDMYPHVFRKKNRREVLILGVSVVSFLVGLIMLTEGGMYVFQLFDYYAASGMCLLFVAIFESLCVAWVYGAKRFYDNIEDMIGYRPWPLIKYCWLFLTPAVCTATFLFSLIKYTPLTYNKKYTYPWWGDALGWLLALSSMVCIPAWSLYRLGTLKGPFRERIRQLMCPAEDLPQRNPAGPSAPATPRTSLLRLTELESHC
# Experimental: as §1, §2, §3
SMILES,IC50 [1] [mM],IC50 [2] [mM]
NC1=NC=C(C(=O)O)CN1.O=C(O)C(F)(F)F [compound 11],> 1,> 1
"NC1=NCC(C(=O)O)CC1 (stereo not shown) [compound 2, 6-amino-2,3,4,5-tetrahydropyridine-3-carboxylic acid, reference compound]",> 1,> 1
Cl.NC1=NCC(C(=O)O)CN1Cc1ccccc1 (stereo not shown) [compound 4],0.117,0.105
CCN1CC(C(=O)O)CN=C1N.Cl (stereo not shown) [compound 3],> 1,> 1
"C[C@@H]1N=C(N)NC[C@@H]1C(=O)O (single isomer, unassigned) [l-15a]",> 1,> 1
